From publication PMC9804055, “Kinase inhibit region of SOCS3 attenuates IL6‐induced proliferation and astrocytic differentiation of neural stem cells via cross talk between signaling pathways” (CNS Neuroscience & Therapeutics, 2022)

Tests used:
Format in all cases: cell-based, SD rats
[1] = test system: p‐ERK1/2; test: Western blotting, p-ERK1/2 / ERK1/2; settings: mean ± SD, n = 3
Procedure: (§1) NSCs at 1 × 10^6 cells/ml in 6‐well plate were treated with IL‐6 and TAT‐KIR as above. Cells were harvested at 3 h, 6 h, 12 h, 24 h, or 7 days after treatment. Cells were suspended in lysis buffer containing 150 μl RIPA (#89900, Pierce) protease and phosphatase inhibitor cocktail (#4693159001 and 04906845001, Roche). Cell lysates were incubated on ice for 20 min and centrifuged at 12,000 rpm for 15 min at 4°C. The proteins in supernatant were separated by electrophoresis with 10%–12% sodium dodecyl sulfate polyacrylamide gel (SDS‐PAGE) and then transferred onto 0.22 μm polyvinylidene difluoride membranes (PVDF; #IPVH00010, Millipore). The membranes were blocked in 5% BSA dissolved in Tris‐buffered saline containing 0.1% Tween‐20 for 2 h at room temperature and then were incubated overnight at 4°C with primary antibodies, including GFAP (#ab7260, Abcam, 1:1000), β Tublin III (#MAB1637, Millipore, 1:1000), and STAT3, p‐STAT3, P38, p‐P38, ERK1/2, p‐ERK1/2, AKT, p‐AKT, JNK2, p‐JNK2(#4904, 9145, 8690, 4511, 4695, 9101, 4685, 4060, 9258, 4668, Cell Signaling, all in 1:1000) and β‐actin (#A01263, Boster Biological Technology, 1:20,000). After washing, the membranes were incubated with the secondary antibodies (HRP conjugated anti‐rabbit or anti‐mouse IgG) for 2 h at room temperature. […] All data were analyzed with Image J (version 1.61).

[2] = test system: NSCs; test: NSCs differentiation, immunostaining of GFAP and β tubulin III positive cells; settings: 7 DIV, mean ± SD, n = 9
Procedure: NSCs at 1 × 10^5 cells/ml were seeded into 24‐well plates allocated randomly in Control, TAT‐KIR, IL‐6, and TAT‐KIR+IL6 groups. After 24 h culture with differentiation media, IL‐6 and TAT‐KIR were added into the medium as above order and reapplied every other day (Figure 4A). Cells were harvested at 7 DIV. Immunocytochemical staining was performed with different antibodies, including GFAP and β Tublin III. […] Then the numbers of GFAP positive and β Tubulin III positive cells were counted, and the percentages of differentiated cells were calculated by using Image J (version 1.61).

[3] = test system: NSCs; test: Ki67 immunocytochemistry, NSC proliferation; settings: 3 days, mean ± SD
Procedure: (§2) NSCs survival and growth were analyzed by using cell counting kit‐8 (#CK04, Dojindo, CCK‐8). NSCs were randomly allocated in the Control, TAT‐scramble, TAT‐KIR, IL‐6, and TAT‐KIR+IL6 groups. All NSCs seeded into 96‐well plates at 5 × 10^4 cells/ml and cultured in growth medium for 24 h. IL‐6 in the concentration of 100 ng/ml was applied to mimic inflammatory condition. Thirty minutes later, TAT‐KIR or TAT‐scramble was added into the culture system. Cell viability of each group was observed by Universal Microplate Spectrophotometer (QuantTM, BioTek) at first, third, and fifth day after peptide administration (Figure 3A). Optical density (OD) values at 450 nm were measured. Immunocytochemistry staining with ki67 (#ab16667, Abcam, 1:300) was used to assess NSC proliferation. Cell cycles were analyzed by FACS at third day after peptide administration. The rates of cells in G0/G1, S, and G2/M were measured, and the proliferation index (PI) {PI = (S + G2/M)/([…] + S + G2/M) × 100%} was calculated, respectively. In each independent experiment, the procedures were carried out in triplicate.

[4] = test system: p‐JNK2; test: Western blotting, p-JNK2/JNK2; settings: mean ± SD, n = 3
Procedure: (§3) NSCs at 1 × 10^6 cells/ml in 6‐well plate were treated with IL‐6 and TAT‐KIR as above. Cells were harvested at 3 h, 6 h, 12 h, 24 h, or 7 days after treatment. Cells were suspended in lysis buffer containing 150 μl RIPA (#89900, Pierce) protease and phosphatase inhibitor cocktail (#4693159001 and 04906845001, Roche). Cell lysates were incubated on ice for 20 min and centrifuged at 12,000 rpm for 15 min at 4°C. The proteins in supernatant were separated by electrophoresis with 10%–12% sodium dodecyl sulfate polyacrylamide gel (SDS‐PAGE) and then transferred onto 0.22 μm polyvinylidene difluoride membranes (PVDF; #IPVH00010, Millipore). The membranes were blocked in 5% BSA dissolved in Tris‐buffered saline containing 0.1% Tween‐20 for 2 h at room temperature and then were incubated overnight at 4°C with primary antibodies, including GFAP (#ab7260, Abcam, 1:1000), β Tublin III (#MAB1637, Millipore, 1:1000), and STAT3, p‐STAT3, P38, p‐P38, ERK1/2, p‐ERK1/2, AKT, p‐AKT, JNK2, p‐JNK2(#4904, 9145, 8690, 4511, 4695, 9101, 4685, 4060, 9258, 4668, Cell Signaling, all in 1:1000) and β‐actin (#A01263, Boster Biological Technology, 1:20,000). After washing, the membranes were incubated with the secondary antibodies (HRP conjugated anti‐rabbit or anti‐mouse IgG) for 2 h at room temperature. The membranes were visualized by an enhanced chemiluminescence (ECL) kit. All data were analyzed with Image J (version 1.61).

[5] = test system: p‐AKT; test: Western blotting, p-AKT/AKT; settings: for rate of p-AKT to AKT: mean ± SD, n = 3
Procedure: as §3

[6] = test system: GFAP; test: Western blotting, GFAP expression; settings: mean ± SD, n = 3
Procedure: as §1

[7] = test system: β tubulin III; test: Western blotting, β tubulin III expression; settings: mean ± SD, n = 3
Procedure: as §1

[8] = test system: p‐STAT3; test: Western blotting, p-STAT3/STAT3; settings: for rate of p-STAT3 to STAT3: differentiation medium, 7 days, mean ± SD, n = 3
Procedure: as §3

[9] = test system: NSCs; test: Cell cycle analysis by FACS, proliferation index; settings: third day, mean ± SD, n = 3
Procedure: as §2

[10] = substance alone, 7 days differentiation
[11] = substance alone, differentiation medium
[12] = substance alone, growth medium, IL-6 100 ng/ml, TAT-KIR 3 μM, n = 9 figures from three experiments
[13] = substance alone, 3 h after treatment
[14] = substance alone, PI = (S + G2/M)/(all phases) × 100%
[15] = TAT-KIR together with IL-6, 7 days differentiation
[16] = TAT-KIR together with IL-6 100 ng/ml
[17] = TAT-KIR together with IL-6, treatment for 3 h

Substance: IL‐6: inflammatory cytokine, 100 ng/ml applied to mimic inflammatory condition [reference compound]
- rate of p-ERK1/2 to ERK1/2 [1, 10]: 0.75 ± 0.070
- percentage of GFAP positive cells (astrocytic differentiation) [2, 11]: 45.72 ± 7.50%
- percentage of β tubulin III positive cells (neuronal differentiation) [2, 11]: 32.33 ± 5.68%
- percentage of Ki67 positive proliferating cells (Ki67/DAPI) [3, 12]: 54.33 ± 10.29%
- p-JNK/JNK [4, 13]: 0.54 ± 0.056
- p-JNK/JNK ([4]; substance alone, 6 h after treatment): 0.67 ± 0.062
- rate of p-JNK2 to JNK2 [4, 10]: 0.63 ± 0.049
- rate of p-AKT to AKT [5, 10]: 1.05 ± 0.081
- GFAP expression (Western blotting) [6, 10]: 1.30 ± 0.127
- β tubulin III expression (Western blotting) [7, 10]: 1.22 ± 0.044
- rate of p-STAT3 to STAT3 ([8]; substance alone): 0.88 ± 0.093
- proliferation index (PI) [9, 14]: 34.61 ± 4.12%
- percentage of cells in G0/G1 phase ([9]; substance alone): 65.39 ± 4.12%
- percentage of cells in S phase ([9]; substance alone): 28.14 ± 2.79%

Substance: RKKRRQRRR‐LR‐LKTFSSKSEYQL‐V [TAT‐KIR]
- rate of p-ERK1/2 to ERK1/2 [1, 15]: 0.68 ± 0.041
- percentage of GFAP positive cells (astrocytic differentiation) [2, 16]: 36.78 ± 6.81%
- percentage of β tubulin III positive cells (neuronal differentiation) [2, 16]: 30.33 ± 4.39%
- percentage of GFAP positive cells (astrocytic differentiation) [2, 11]: 30.67 ± 4.66%
- percentage of β tubulin III positive cells (neuronal differentiation) [2, 11]: 26.78 ± 4.79%
- percentage of Ki67 positive proliferating cells (Ki67/DAPI) ([3]; TAT-KIR 3 μM applied together with IL-6 100 ng/ml, n = 9): 41.33 ± 7.72%
- percentage of Ki67 positive proliferating cells (Ki67/DAPI) [3, 12]: 20.67 ± 3.74%
- rate of p-JNK2 to JNK2 [4, 15]: 0.63 ± 0.042
- p-JNK/JNK [4, 13]: 0.30 ± 0.040
- p-JNK/JNK ([4]; substance alone, 12 h after treatment): 0.50 ± 0.090
- rate of p-JNK2 to JNK2 [4, 10]: increased trend
- rate of p-AKT to AKT [5, 15]: 0.87 ± 0.037
- p-AKT expression of IL-6-induced NSCs [5, 17]: dramatically reduced
- GFAP expression (Western blotting) [6, 15]: 0.88 ± 0.091
- β tubulin III expression (Western blotting) [7, 15]: 1.21 ± 0.025
- rate of p-STAT3 to STAT3 [8, 16]: 0.61 ± 0.025
- p-STAT3 expression of IL-6-induced NSCs [8, 17]: dramatically reduced
- rate of p-STAT3 to STAT3 ([8]; substance alone): did not affect
- percentage of cells in G0/G1 phase [9, 16]: 73.18 ± 3.04%
- percentage of cells in S phase [9, 16]: 19.31 ± 3.32%
- proliferation index (PI) [9, 16]: 26.82 ± 3.04%
- proliferation index (PI) [9, 14]: 14.34 ± 1.98%
- percentage of cells in G0/G1 phase ([9]; substance alone): 85.66 ± 1.98%
- percentage of cells in S phase ([9]; substance alone): 9.56 ± 0.22%
